Source: patent US4278671A, “7-[2-(2-Aminothiazol-4-yl)-2-(syn)-methoxyiminoacetamido] cephalosporins” (Takeda Chemical Industries, Ltd., priority 1976, dated 1981)
In brackets after ≈: the same amount, converted by molar mass. Like-named read-outs stand apart in the source and are kept apart here.

Columns and labels:
[1] = system: E. coli 0-111; experiment: minimal inhibitory concentration against E. coli 0-111; format: cell-based, Escherichia coli; conditions: 0111
[2] = system: Proteus mirabilis GN 4359; experiment: minimal inhibitory concentration against P. mirabilis GN 4359; format: cell-based; conditions: GN4359
[3] = system: Proteus rettgeri GN 4733; experiment: minimal inhibitory concentration against P. rettgeri GN 4733; format: cell-based; conditions: Providencia rettgeri, GN4733
[4] = system: P. rettgeri 8(TN0336); experiment: minimal inhibitory concentration against P. rettgeri 8 (TN0336); format: cell-based, Proteus rettgeri; conditions: Providencia rettgeri
[5] = system: Proteus morganii IFO 3168; experiment: minimal inhibitory concentration against P. morganii IFO 3168; format: cell-based; conditions: Morganella morganii, IFO3168
[6] = system: Enterobacter cloacae IFO 12937; experiment: minimal inhibitory concentration against Ent. cloacae IFO 12937; format: cell-based
[7] = system: E. coli NIHJ; experiment: minimal inhibitory concentration against E. coli NIHJ; format: cell-based; conditions: Escherichia coli
[8] = system: Proteus vulgaris IFO 3988; experiment: minimal inhibitory concentration against P. vulgaris IFO 3988; format: cell-based; conditions: IFO3988
[9] = system: Klebsiella pneumoniae GN 3835; experiment: minimal inhibitory concentration against K. pneumoniae GN 3835; format: cell-based; conditions: GN3835
[10] = system: P. vulgaris GN 4413; experiment: minimal inhibitory concentration against P. vulgaris GN 4413; format: cell-based; conditions: Proteus vulgaris, GN4413
[11] = system: Serratia TN 0024; experiment: minimal inhibitory concentration against Serratia TN 0024; format: cell-based
[12] = system: Citrobacter freundii GN 1706; experiment: minimal inhibitory concentration against Cit. freundii GN 1706; format: cell-based; conditions: GN1706
[13] = system: Klebsiella pneumoniae DT; experiment: minimal inhibitory concentration against K. pneumoniae DT; format: cell-based
[14] = system: Serratia marcescens IFO 12648; experiment: minimal inhibitory concentration against Serr. marcescens IFO 12648; format: cell-based; conditions: IFO12648
[15] = system: E. coli T-7; experiment: minimal inhibitory concentration against E. coli T-7; format: cell-based; conditions: Escherichia coli, T7
[16] = system: Citrobacter freundii GN 99; experiment: minimal inhibitory concentration against Cit. freundii GN 99; format: cell-based; conditions: GN99
[17] = system: E. coli; experiment: protective effect on infected mice (intraperitoneal infection with E. coli); format: in vivo; conditions: Escherichia coli, 168 h, male mice ICR/SLC, 7 days observation
Excerpt: *Test animals: male mice (ICR/SLC) 5 mice per group per single
Infection: intraperitoneally with E. coli
Observation period: 7 days

[18] = system: Acinetobacter anitratus TN-1140; experiment: minimal inhibitory concentration against Acinetobacter anitratus TN-1140; format: cell-based; conditions: Acinetobacter calcoaceticus, TN1140
[19] = system: Ps. aeruginosa Pd 1; experiment: minimal inhibitory concentration against Ps. aeruginosa Pd 1; format: cell-based; conditions: Pseudomonas aeruginosa, PD1
[20] = system: Ps. aeruginosa P2; experiment: minimal inhibitory concentration against Ps. aeruginosa P2; format: cell-based; conditions: Pseudomonas aeruginosa
[21] = system: Ent. cloacae TN1282; experiment: minimal inhibitory concentration against Ent. cloacae TN1282; format: cell-based; conditions: Enterobacter cloacae
[22] = system: Ps. aeruginosa GN3407; experiment: minimal inhibitory concentration against Ps. aeruginosa GN3407; format: cell-based; conditions: Pseudomonas aeruginosa
[23] = system: Ps. aeruginosa PM 3; experiment: minimal inhibitory concentration against Ps. aeruginosa PM 3; format: cell-based; conditions: Pseudomonas aeruginosa, PM3
[24] = Escherichia coli, E. coli 0-111, read-out: minimal inhibitory concentration
[25] = Proteus mirabilis, P. mirabilis GN 4359, read-out: minimal inhibitory concentration
[26] = P. rettgeri GN 4733, read-out: minimal inhibitory concentration
[27] = P. rettgeri 8(TN0336), read-out: minimal inhibitory concentration
[28] = P. morganii IFO 3168, read-out: minimal inhibitory concentration
[29] = Enterobacter cloacae, Ent. cloacae IFO12937, read-out: minimum inhibitory concentration
[30] = Proteus vulgaris, P. vulgaris IFO 3988, read-out: minimal inhibitory concentration
[31] = Klebsiella pneumoniae, K. pneumoniae GN 3835, read-out: minimal inhibitory concentration
[32] = TN0024, Serratia TN 0024, read-out: minimal inhibitory concentration
[33] = Citrobacter freundii, Cit. freundii GN 1706, read-out: minimal inhibitory concentration
[34] = Klebsiella pneumoniae, K. pneumoniae DT, read-out: minimal inhibitory concentration
[35] = Serratia marcescens, Serr. marcescens IFO 12648, read-out: minimal inhibitory concentration
[36] = Citrobacter freundii, Cit. freundii GN 99, read-out: minimal inhibitory concentration

SMILES | MIC [1, 24] | MIC [2, 25] | MIC [3, 26] | MIC [4, 27] | MIC [5, 28] | MIC [7] | MIC [8, 30] | MIC [9, 31] | MIC [10] | MIC [11, 32] | MIC [12, 33] | MIC [13, 34] | MIC [14, 35] | MIC [15] | MIC [16, 36] | ED50 ([17]; subcutaneous (SC)) | MIC [18] | MIC [19] | MIC [20] | MIC [21] | further results
CO/N=C(\C(=O)NC1C(=O)N2C(C(=O)O)=C(CSc3nnc(C)s3)CSC12)c1csc(N)n1 (stereo not drawn) [(a), Sodium 7-[2-(2-aminothiazol-4-yl)-2-(syn)-methoxyiminoacetamido]-3-(2-methyl-1,3,4-thiadiazol-5-yl)thiomethyl-3-cephem-4-carboxylate] | 0.1 µg/mL | 0.2 µg/mL | 0.39 µg/mL | ≤ 0.012 µg/mL | 0.1 µg/mL | 0.2 µg/mL | 0.1 µg/mL | 0.39 µg/mL | 1.56 µg/mL | 0.78 µg/mL | 0.78 µg/mL | 0.05 µg/mL | 0.78 µg/mL | 1.56 µg/mL | 0.2 µg/mL |  |  |  |  |  | MIC [6, 29]: 3.13 µg/mL
CO/N=C(\C(=O)NC1C(=O)N2C(C(=O)O)=C(CSc3nnnn3CCN(C)C)CSC12)c1csc(N)n1 (stereo not drawn) [(e), 7-[2-(2-Aminothiazol-4-yl)-2-(syn)-methoxyiminoacetamido]-3-[1-(2-N,N-dimethylaminoethyl)-1,2,3,4-tetrazol-5-yl]thiomethyl-3-cephem-4-carboxylic acid betaine] | 0.024 µg/mL (≈ 0.0422 µM) | 0.39 µg/mL (≈ 0.686 µM) | 0.78 µg/mL (≈ 1.37 µM) | 0.024 µg/mL (≈ 0.0422 µM) | 0.2 µg/mL (≈ 0.352 µM) | 0.2 µg/mL (≈ 0.352 µM) | 0.2 µg/mL (≈ 0.352 µM) | 0.2 µg/mL (≈ 0.352 µM) | 1.56 µg/mL (≈ 2.74 µM) | 0.78 µg/mL (≈ 1.37 µM) | 0.78 µg/mL (≈ 1.37 µM) | 0.1 µg/mL (≈ 0.176 µM) | 1.56 µg/mL (≈ 2.74 µM) | 1.56 µg/mL (≈ 2.74 µM) | 0.2 µg/mL (≈ 0.352 µM) |  |  |  |  |  | MIC [6, 29]: 6.25 µg/mL (≈ 11 µM)
O=C(Cc1cccs1)N[C@@H]1C(=O)N2C(C(=O)[O-])=C(C[n+]3ccccc3)CS[C@H]12 [CER, cephaloridine, reference compound] |  |  |  |  |  |  |  |  |  |  |  |  |  |  |  | 1.25 mg/kg |  |  |  |  | 
CC1=C(C(=O)O)N2C(=O)[C@@H](NC(=O)[C@H](N)c3ccccc3)[C@H]2SC1 [CEX, cephalexin, reference compound] |  |  |  |  |  |  |  |  |  |  |  |  |  |  |  |  |  |  |  |  | ED50 ([17]; oral): 2.51 mg/kg
CO/N=C(\C(=O)NC1C(=O)N2C(C(=O)O)=C(COC(N)=O)CSC12)c1csc(N)n1 (stereo not drawn) [Example 1, sodium 7-[2-(2-aminothiazol-4-yl)-2-(syn)-methoxyiminoacetamido]-3-carbamoyloxymethyl-3-cephem-4-carboxylate] | 0.024 µg/mL | ≤ 0.02 µg/mL | 0.05 µg/mL | ≤ 0.012 µg/mL | 0.39 µg/mL | 0.1 µg/mL | ≤ 0.02 µg/mL | 0.05 µg/mL | 1.56 µg/mL | 0.2 µg/mL | 0.39 µg/mL | < 0.012 µg/mL | 1.56 µg/mL | 0.39 µg/mL | 0.2 µg/mL | 0.015 mg/kg | 6.25 µg/mL | 50 µg/mL | 25 µg/mL | 6.25 µg/mL | MIC [22]: > 100 µg/mL; MIC [23]: 3.13 µg/mL
CO/N=C(\C(=O)NC1C(=O)N2C(C(=O)O)=C(CSc3nnnn3C)CSC12)c1csc(N)n1 (stereo not shown) [Example 2] | 0.024 µg/mL (≈ 0.0469 µM) | 0.1 µg/mL (≈ 0.195 µM) | 0.2 µg/mL (≈ 0.391 µM) | ≤ 0.012 µg/mL | 0.05 µg/mL (≈ 0.0977 µM) | 0.1 µg/mL (≈ 0.195 µM) | 0.024 µg/mL (≈ 0.0469 µM) | 0.2 µg/mL (≈ 0.391 µM) | 0.39 µg/mL (≈ 0.762 µM) | 0.2 µg/mL (≈ 0.391 µM) | 0.2 µg/mL (≈ 0.391 µM) | 0.024 µg/mL (≈ 0.0469 µM) | 0.78 µg/mL (≈ 1.52 µM) | 0.78 µg/mL (≈ 1.52 µM) | 0.1 µg/mL (≈ 0.195 µM) | 0.022 mg/kg | 25 µg/mL (≈ 48.9 µM) | 12.5 µg/mL (≈ 24.4 µM) | 50 µg/mL (≈ 97.7 µM) | 1.56 µg/mL (≈ 3.05 µM) | MIC [22]: 50 µg/mL (≈ 97.7 µM); MIC [23]: 0.78 µg/mL (≈ 1.52 µM)
CO/N=C(\C(=O)NC1C(=O)N2C(C(=O)O)=C(COC(C)=O)CSC12)c1csc(N)n1 (stereo not drawn) [Example 3, sodium 7-[2-(2-aminothiazol-4-yl)-2-(syn)-methoxyiminoacetamido]cephalosporanate] | 0.05 µg/mL | 0.05 µg/mL | 0.2 µg/mL | ≤ 0.012 µg/mL | 0.2 µg/mL | 0.2 µg/mL | 0.024 µg/mL | 0.05 µg/mL | 0.78 µg/mL | 0.78 µg/mL | 0.39 µg/mL | 0.024 µg/mL | 3.13 µg/mL | 0.78 µg/mL | 0.2 µg/mL | 0.018 mg/kg | 25 µg/mL | 25 µg/mL | 50 µg/mL | 6.25 µg/mL | MIC [22]: 50 µg/mL; MIC [23]: 1.56 µg/mL
CO/N=C(\C(=O)NC1C(=O)N2C(C(=O)O)=C(C)CSC12)c1csc(N)n1 (stereo not drawn) [Example 5, sodium 7-[2-(2-aminothiazol-4-yl)-2-(syn)-methoxyiminoacetamido]desacetoxycephalosporanate] | 0.39 µg/mL | 0.1 µg/mL | 0.1 µg/mL | ≤ 0.012 µg/mL | 12.5 µg/mL | 0.78 µg/mL | 0.2 µg/mL | 0.2 µg/mL | 1.56 µg/mL | 1.56 µg/mL | 6.25 µg/mL | 0.2 µg/mL | 12.5 µg/mL | 6.25 µg/mL | 3.13 µg/mL | 0.111 mg/kg | 12.5 µg/mL | > 100 µg/mL | > 100 µg/mL | 50 µg/mL | MIC [22]: > 100 µg/mL; MIC [23]: 25 µg/mL
CO/N=C(\C(=O)NC1C(=O)N2C(C(=O)OCOC(=O)C(C)(C)C)=C(CSc3nnnn3C)CSC12)c1csc(N)n1 (stereo not shown) [Example 15] |  |  |  |  |  |  |  |  |  |  |  |  |  |  |  |  |  |  |  |  | ED50 ([17]; oral): 0.11 mg/kg
CO/N=C(/C(=O)NC1C(=O)N2C(C(=O)O)=C(COC(N)=O)CSC12)c1csc(N)n1 (stereo not drawn) [compound 27, sodium 7-[(2-aminothiazol-4-yl)-α-(anti)-methoxyimino]acetamido-3-carbamoyloxymethyl-3-cephem-4-carboxylate, reference compound] |  |  |  |  |  |  |  |  |  |  |  |  |  |  |  |  |  |  |  |  | MIC ([1]; Escherichia coli 0-111, read-out: MIC): 0.78 µg/mL; MIC ([2]; Proteus mirabilis GN 4359, read-out: MIC): 0.78 µg/mL; MIC ([3]; Proteus rettgeri GN 4733, read-out: MIC): 0.78 µg/mL; MIC ([4]; Proteus rettgeri 8 TNO 336, read-out: MIC): < 0.2 µg/mL; MIC ([5]; Proteus morganii IFO 3168, read-out: MIC): 0.78 µg/mL; MIC ([6]; IFO12937, Enterobacter cloacae IFO 12937, read-out: MIC): 25 µg/mL; MIC ([8]; Proteus vulgaris IFO 3988, read-out: MIC): 0.39 µg/mL; MIC ([9]; Klebsiella pneumoniae GN 3835, read-out: MIC): 6.25 µg/mL; MIC ([11]; Serratia TN0024, read-out: MIC): 6.25 µg/mL; MIC ([12]; Citrobacter freundii GN 1706, read-out: MIC): 3.13 µg/mL; MIC ([13]; Klebsiella pneumoniae DT, read-out: MIC): 1.56 µg/mL; MIC ([14]; Serratia marcescens IFO 12648, read-out: MIC): 12.5 µg/mL; MIC ([16]; Citrobacter freundii GN 99, read-out: MIC): 1.56 µg/mL
